Measured values as given in a melting point compilation (Tetko et al.; mined from patent text by program, amines drawn as free bases though some values may be those of a salt).

Work on CC1(C)CCC(=O)Nc2ccc(Nc3ncc(Cl)c(N[C@@H]4CCCC[C@H]4NS(C)(=O)=O)n3)cc21 yielded a melting point of 170 to 185 °C. CN1C(=O)CNN(c2cc(Cl)c(Oc3ccc(S(C)(=O)=O)cc3)c(Cl)c2)C1=O gave a melting point of 217 °C. COc1cc2c(cc1OC(C)C)C(=O)C1c3c(cc(OC(C)C)c(OC)c3-2)CCN1C (stereo unspecified) gave a melting point of 82 to 84 °C. For O=C1NC(=O)c2ccccc2C1=CNc1ccc(-c2ccccc2)cc1, the melting point was 261 to 262 °C. With Cc1cc(-n2ccc(OCc3ccccc3)cc2=O)oc1C(=O)NCc1ccccc1 the melting point was 191 to 192 °C. For CCCC12CCC3C4CCC(=O)C=C4CCC3C1CCC2(C)O (stereo unspecified), the melting point was 134 to 136 °C. OCCNc1ccnc2cc3c(cc12)OCO3 gave a melting point of 233 to 234 °C. CC1(C)OC(=S)Nc2ccc(-c3cc(C#N)cs3)cc21 gave a melting point of 258 to 259 °C. With O=C(O)Cc1ccc(Oc2ccc(Cl)nn2)cc1 the melting point was 124 to 127 °C. Compound CCC1(CCCCN2CCN(c3cccc4c3OCCO4)CC2)C(=O)Nc2cc(F)ccc21 (stereo unspecified) has a melting point of 146 to 147 °C. For O=C(C=Cc1ccccn1)c1ccc(OCc2ccccc2)cc1, the melting point was 131 to 134 °C. Compound COc1ccc(COc2ccc3c(c2)C(c2ccc(C(C)C)cc2)C(C)(C)O3)cc1 (stereo unspecified) has a melting point of 124 to 126 °C. CCC(=O)NN=C(C)c1cnccn1 showed a melting point of 181 °C. Work on O=C(CCC(=O)N1CCC(c2ccc(Cl)cc2)CC1)c1ccc2c(c1)CNCCC2 yielded a melting point of 122 to 124 °C. With CCCCCCCCCCCc1cc(O)c(CCCCCC)c(=O)o1 the melting point was 83 to 84 °C. Work on CC(C)c1ccnc(C(=O)c2[nH]c3cc(Cl)ccc3c2CC(=O)O)c1 yielded a melting point of 194 to 196 °C. Work on COc1ccc(C2Sc3ccccc3NC(=O)C2OC(C)=O)cc1 (stereo unspecified) yielded a melting point of 193 to 195 °C. CN(c1cccc(C(=O)O)c1)c1ccc(-c2ccc(C(=N)N)cc2)nn1 gave a melting point of over 260 °C. With CC(C)(C)OC(=O)Nc1ccc(CN2OCC(C)(C)C2=O)c(Cl)c1 the melting point was 124 to 126 °C. In the case of CSc1ccc(-c2nc(=O)c3ccccc3s2)cn1, the melting point is reported as 168 to 170 °C. For NC(=O)c1ccc(C(=C2CC3CCC(C2)N3CCc2ccccc2)c2ccccc2)cc1, the melting point was 210 to 212 °C. For COC(=O)CC/C(C)=C/Cc1c(C#N)c2c(c(C)c1OC)COC2=O, the melting point was 87 to 88 °C. With CC(C)(C)OC(=O)N1CC(NS(=O)(=O)c2ccc(Oc3ccccc3)cc2)C(SC(C)(C)C)C1 (stereo unspecified) the melting point was 85 to 86 °C. In the case of CCOC(=O)c1ccc(NCCOc2ccc3ccccc3c2)cc1, the melting point is reported as 158 to 162 °C. In the case of CC(C)c1cccc(C(C)C)c1NS(=O)(=O)NC(=O)N(Cc1ccccc1)Cc1ccccc1, the melting point is reported as 140 to 142 °C. In the case of COc1ncc(S(C)(=O)=O)cc1CCC(=O)c1ccc(Cl)c(Cl)c1, the melting point is reported as 145 to 146 °C. CCCCS(=O)(=O)NC1Cc2ccc(-c3ccc(=O)[nH]n3)cc2C1 (stereo unspecified) showed a melting point of 195 to 196 °C. Cc1nc(-n2ccc(O)cc2=O)sc1C(=O)NCC1CC1 gave a melting point of 240 to 242 °C. Nc1ccc(-c2ccc(Cl)cc2)c(Cl)n1 gave a melting point of 178 to 182 °C. In the case of CCOC(=O)c1nccn1Cc1ccccc1N, the melting point is reported as 104 to 106 °C. In the case of C[C@@H](c1ccc(-c2c[nH]nn2)cc1)[C@](O)(Cn1cncn1)c1ccc(F)cc1F, the melting point is reported as 121 °C. Work on OCc1cc2c(Cl)ccc(Br)c2s1 yielded a melting point of 141 to 143 °C. With CCCCCCCCCCCCCCCc1c([N+](=O)[O-])cc([N+](=O)[O-])c(OC)c1C(=O)O the melting point was 68 to 75 °C. With O=C(CC(Cc1ccccc1)C(=O)O)c1cccc(Cl)c1 (stereo unspecified) the melting point was 85 to 89 °C. O=C(O)CCCOc1ccc(CSc2[nH]nc(NS(=O)(=O)c3c(Cl)cccc3Cl)c2-c2ccccn2)cc1 showed a melting point of 183 to 185 °C. With CCOC(=O)c1[nH]c2cc(F)ccc2c1NCCC(=O)c1ccccc1 the melting point was 265 to 270 °C. With N#Cc1nn(-c2c(Cl)cc(C(F)(F)F)cc2Cl)cc1C(=O)C(F)(F)F the melting point was 124 to 125 °C. O=c1[nH]c(=O)n(Cc2ccc(OCc3noc(-c4ccccc4)n3)cc2)o1 showed a melting point of 150 to 151 °C. For CCOC(=O)CCCCC(=O)OC[C@@H]1CC(c2ccc(-c3ccc(N4C[C@H](Cn5ccnn5)OC4=O)cc3F)cn2)=NO1, the melting point was 88 °C. Work on CCCc1nc2c(N)nc3cc(OCc4ccoc4)ccc3c2s1 yielded a melting point of 170 to 171 °C. For COc1cccc(-c2nn(C)c3ccsc23)c1, the melting point was 99 to 101 °C. In the case of N#Cc1cccc(CN2CCc3cc(Cl)ccc32)c1, the melting point is reported as 73.5 to 75.5 °C. Compound C#CCCCCC(=O)Nc1nc2nn(C)cc2c2nc(-c3ccco3)nn12 has a melting point of 208 to 215 °C. OC[C@@H](O)CCOc1ccc(-c2nc3c4ccccc4c4ccccc4c3[nH]2)cc1 showed a melting point of 263 to 265 °C. COC(=O)[C@H]1NC(=O)[C@H]1NC(=O)Cc1cccs1 (relative stereo) showed a melting point of 133 to 136 °C. In the case of Cc1noc(NS(=O)(=O)c2ccccc2-c2ccc(-c3ncco3)cc2CN2C(=O)C(F)(F)c3ccccc32)c1C, the melting point is reported as 112 to 120 °C. N#CCC(=O)Cc1cccc(C(F)(F)F)c1 gave a melting point of 82 to 83 °C. With OC1CCc2ccc(Cl)cc2C1 (stereo unspecified) the melting point was 79 to 81 °C. O=C(NCc1cccnc1)c1ccc2n1Cc1ccccc1N(C(=O)c1ccc(-c3ccccc3CO)cc1)C2 gave a melting point of 119 to 121 °C. Compound CCn1nc(C#N)c(Nc2ccc(F)cc2[N+](=O)[O-])n1 has a melting point of 115 to 116 °C. For CCOC(=O)C1CC(=O)C(NC(C)=O)=C(O)C1 (stereo unspecified), the melting point was 112 to 114 °C. With CCCC1=C(C#N)C(c2ccccc2C#N)c2c[nH]nc2N1 (stereo unspecified) the melting point was 218 °C. COc1ccc2ncc(C#N)c(Nc3ccc4cn[nH]c4c3)c2c1 showed a melting point of over 250 °C. Compound Cc1cccc(-c2nccc(NN)n2)c1 has a melting point of 102 to 103 °C. In the case of CNC(=O)c1ccc(-c2ccc3nnn(Cc4c(F)ccc(F)c4Cl)c3n2)cc1F, the melting point is reported as 213 to 215 °C. In the case of O=[N+]([O-])c1ccccc1COc1cc[nH]n1, the melting point is reported as 87 °C. With C1=Cc2cc3ccccc3cc2C1 the melting point was 160 to 163 °C. In the case of NC(=O)CC[C@H](NC(=O)c1ccc(OCc2ccccc2)cc1OCc1ccccc1)C(=O)N1CCN(c2ccccc2)CC1, the melting point is reported as 157 to 158 °C. In the case of CCc1c(C)[nH]c2cc(OCOC)c(Cl)cc2c1=O, the melting point is reported as 217 to 219 °C. Compound COC(=O)c1c(SCc2ccc(OC)cc2)nc(-c2ccccc2)n1Cc1cc2c(cc1Cl)OCO2 has a melting point of 158 °C. COc1ccc(C(=O)CCCN2CCC(OC(=O)c3cc(Cl)c(N)c4c3OCC4)CC2)cc1 showed a melting point of 136 °C. Compound CN(c1cccc2cc(-c3nncs3)[nH]c12)S(=O)(=O)c1cccs1 has a melting point of 270 to 271 °C. For CC(C)COC1C=CC(=O)N1S(=O)(=O)c1ccccc1 (stereo unspecified), the melting point was 82 to 83 °C. In the case of CCOC(=O)C1=C(COCC(=O)O)NC(C)=C(C(=O)OC)C1c1ccccc1Cl (stereo unspecified), the melting point is reported as 150 to 154 °C. CCOC(=O)c1ccc2snnc2c1 showed a melting point of 74.5 to 77 °C. With OCCc1ccc(N2CCOCC2)cc1 the melting point was 57 °C. Work on CC(C)(C)NC(=O)CN1C(=O)C(NC(=O)Nc2cccc(Cl)c2)CC(C2CCCCC2)c2ccccc21 (stereo unspecified) yielded a melting point of 223 to 226 °C. Compound CCC(CC)Oc1cc(C)nc(Nc2c(C)cc(C)cc2C)c1C(=O)C#N has a melting point of 108 to 110 °C. CCOC(=O)c1nc2cc(C)sc2nc1N showed a melting point of 121 to 123 °C. O=C(O)c1cc(Br)cc(OCc2ccccc2Cl)c1OCc1ccccc1Cl showed a melting point of 186 to 187 °C. Compound O=C(O)c1cc(OCc2ccccc2)c(-c2ccccc2)c([N+](=O)[O-])c1 has a melting point of 188 to 190 °C.
